Patent US11000056B2, “Bioactive serum fraction from achachairu (Garcinia humilis) which is free of benzophenone and proteins” (ISP Investments LLC, priority 2015, dated 2021)

Key:
[1] = tested on: endocrine (androgenic/estrogenic) activity; conditions: cited from earlier work
[2] = laboratory animals; cited from earlier work
[3] = oral and dermal routes; cited from earlier work
IL-18 = assay: IL18/Baseline, skin sensitization potential in HEK; assay type: cell-based, human; conditions: HEK cultures, positive control
Procedure: It is possible for a test article to not be cytotoxic, and yet be unsafe due to provoking an allergic reaction upon skin contact. Typically, initial exposure to an allergen sensitizes the immune system, and following exposures cause an allergic response. […] We therefore evaluated IL-18 production in HEK treated with test articles to determine their sensitization potential.
Normal human adult epidermal keratinocytes (HEK) were cultured as described in Example 6 above. […] The cell lysates were collected, and IL-18 was quantified using Human IL-18 ELISA Kit (Catalog #7620, produced by MBL International Co., Woburn, Mass., USA). […] Fold changes of IL-18 levels between test articles and respective vehicle controls were calculated and compared to pPD (positive control). […]

SMILES	Anti-estrogenic activity (in words) [1]	Anti-androgenic activity (in words) ([1]; receptor binding assay)	Estrogenic activity (in words) ([1]; receptor binding assay)	Hormonal activity (in words) [2]	Absorption (in words) [3]	IL-18 induction compared to vehicle control (in words) (IL-18)
COc1ccc(C(=O)c2ccccc2)c(O)c1 [BP-3, Benzophenone-3]	anti-estrogenic activity	strong anti-androgenic	weak estrogenic	weak hormonal activity	rapidly absorbed via oral and dermal routes	–
Nc1ccc(N)cc1 [benchmark sensitizer, para-phenylenediamine]	–	–	–	–	–	significantly induced IL-18
